Measured values published in patent publication US4649153A, “5,6-Dihydro-4H-cyclopenta(b)thiophene-6-carboxylic acids, preparation processes and medicines containing them” (Lipha, Lyonnaise Industrielle Pharmaceutique, priority 1984, dated 1987).
Entries after “also recorded” stand apart in the source; their conditions may differ. Read-outs that look alike come from different tables or passages of the source.

Experiments:
carrageenan edema = test: Carrageenan edema test (Winter et al.), rat back paw, anti-inflammatory activity; type: in vivo, rats (male); conditions: for ED30: Rattus norvegicus, read-out: Carrageenan edema ED 30
Description: Edema of a back paw was caused in male rats by subplantar injection of a 1% suspension of carrageenan in apyrogenic physiological solute. Measurement of the edema by plethysmography occurred 3 hours later. The products studied were administered orally 1 hour before the carrageenan injection. The protection conferred by the treatment was determined by calculation of ED 30 (dose moderating the edema 30% in relation to untreated animals).

UV erythema = test: Protection from UV erythema (Winter et al.), early inflammation; type: in vivo, guinea pigs; conditions: Cavia porcellus, read-out: Protection from UV ED 50
Description: White guinea pigs having their backs freshly depilated were radiated individually by exposure to the radiation of a UV lamp placed 25 cm above the animal's back for 1 min 30 sec. The zone to be radiated was delimited by a covering pierced with circular holes wrapping each animal. The erythema was visually marked 2 hours after exposure to radiation. The guinea pigs were treated orally with the test products 1 hour after exposure to UV.

[1] = Acute oral toxicity (LD50), mortality recorded 2 weeks later; conditions: mouse, in vivo, Table III, Swiss mice
Description: Lethal doses 50 (LD50) were determined by oral administration in Swiss mice. Mortality was recorded 2 weeks later.

[2] = Table II, oral, 1 hour before carrageenan, rats, dose moderating edema 30%
[3] = Table II, oral, 1 hour after UV exposure, guinea pigs, dose reducing erythema 50%
[4] = Table I, oral, 1 hour before carrageenan, rats, edema measured 3 hours later, dose moderating edema 30%
[5] = Table I, oral, 1 hour after UV exposure, guinea pigs, erythema marked 2 hours after exposure, dose reducing erythema 50%

Structure (SMILES)	ED30 (carrageenan edema; [2])	ED50 (UV erythema; [3])	ED30 (carrageenan edema; [4])	ED50 (UV erythema; [5])	also measured
O=C(c1ccccc1)c1cc2c(s1)CCC2C(=O)O (stereo not shown) [2-Benzoyl-5,6-dihydro-4H cyclopenta[b]thiophene-4-carboxylic, reference compound]	> 30 mg/kg	> 50 mg/kg			
CC(C)Cc1cc2c(s1)CCC2C(=O)O (stereo not shown) [2-Isobutyl-5,6-dihydro-4H cyclopenta[b]thiophene-4-carboxylic, reference compound]	> 30 mg/kg	> 50 mg/kg			
CC(C)Cc1sc2c(c1C(=O)c1ccccc1)C(C(=O)O)CC2 (stereo not shown) [3-Benzoyl-2-isobutyl-5,6-dihydro-4Hcyclopenta[b]thio-phene-4-carboxylic acid, reference compound]	> 30 mg/kg	> 50 mg/kg			
Cc1sc2c(c1C(=O)c1ccccc1)C(C(=O)O)CC2 (stereo not shown) [3-benzoyl-2-methyl-5,6-dihydro-4H-cyclopenta[b]thiophene-4-carboxylic acid, reference compound]	> 30 mg/kg	> 50 mg/kg			
Cc1sc2c(c1C(=O)c1ccccc1)CCC2C(=O)O (stereo not shown) [Example 7, 3-Benzoyl-2-methyl-5,6-dihydro-4H-cyclopenta[b]thiophene-6-carboxylic acid]		0.4 mg/kg	0.7 mg/kg	0.4 mg/kg	Carrageenan edema ED 30 (carrageenan edema; [2]): 0.7 mg/kg; activity compared with Indomethacin and with isomeric 4-carboxylic acids (in words) (carrageenan edema; carrageenan edema, UV protection and Randall and Selitto tests): greater than that of Indomethacin; also recorded: considerably greater than that of 5,6-dihydro-4H-cyclopenta[b]thiophene-4-carboxylic isomeric acids; LD50 at 336 h [1]: 275 mg/kg
Cc1sc2c(c1C(=O)c1cccs1)CCC2C(=O)O (stereo not shown) [Example 10, 2-Methyl 3-(2-thenoyl)-5,6-dihydro-4H-cyclopenta[b]thiophene-6-carboxylic acid]			3 mg/kg	0.2 mg/kg	LD50 at 336 h [1]: 275 mg/kg
Cc1sc2c(c1C(=O)c1ccc(F)cc1)CCC2C(=O)O (stereo not shown) [Example 21, 3-(4-Fluorobenzoyl)-2-methyl-5,6-dihydro-4H-cyclopenta[b]thiophene-6-carboxylic acid]			2.4 mg/kg	0.4 mg/kg	
Cc1sc2c(c1C(=O)c1ccc(N(C)C)cc1)CCC2C(=O)O (stereo not shown) [Example 27, 3-(4-Dimethylaminobenzoyl)-2-methyl-5,6-dihydro-4H-cyclopenta[b]thiophene-6-carboxylic acid]			1.3 mg/kg	0.6 mg/kg	
CC(C)Cc1sc2c(c1C(=O)c1ccccc1)CCC2C(=O)O (stereo not shown) [Example 32, 3-Benzoyl-2-isobutyl-5,6-dihydro-4H-cyclopenta[b]thiophene-6-carboxylic acid]			> 50 mg/kg	> 50 mg/kg	
CCc1sc2c(c1C(=O)c1ccccc1)CCC2C(=O)O (stereo not shown) [Example 38, 3-Benzoyl-2-ethyl-5,6-dihydro-4H-cyclopenta[b]thiophene-6-carboxylic acid]			6 mg/kg	2 mg/kg	
COc1ccc2c(c1)c(CC(=O)O)c(C)n2C(=O)c1ccc(Cl)cc1 [INDOMETHACIN, 1-(4-chlorobenzoyl)-5-methoxy-2-methyl-3-indolylacetic acid, reference compound]					ED30 (carrageenan edema; po): 5 mg/kg; ED50 (UV erythema; po): 4.5 mg/kg; LD50 at 336 h [1]: 25 mg/kg
